According to ChEMBL document CHEMBL1201862, “PubChem BioAssay data set” (2004):
Where a name gives a salt, the structure may show the parent alone.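 In this assay, cells in 96-well plates receive the compound at five concentrations for 48 hours. Endpoints are linearly interpolated between the surrounding concentrations. GI50 is the concentration that inhibits growth by half.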 Activity calls are given as the source filed them. No stated cut-off is given here; in the data, active = GI50 up to about 1.1 µM and inactive = higher.

How the values were obtained:
Assay in all cases: NCI anticancer screen, dose series, 48 h
786-0 = tested on: 786-0
ACHN = tested on: ACHN
CAKI-1 = tested on: CAKI-1
CCRF-CEM = tested on: CCRF-CEM
DU-145 = tested on: DU-145
HCT-15 = tested on: HCT-15
HL-60 = tested on: HL-60
KM12 = tested on: KM12
LOX IMVI = tested on: LOX IMVI
NCI-H23 = tested on: NCI-H23
NCI-H460 = tested on: NCI-H460
NCI-H522 = tested on: NCI-H522
OVCAR-5 = tested on: OVCAR-5
OVCAR-8 = tested on: OVCAR-8
SF-295 = tested on: SF-295
SF-539 = tested on: SF-539
SK-MEL-2 = tested on: SK-MEL-2
SK-MEL-5 = tested on: SK-MEL-5
U-251 = tested on: U-251
HCC 2998 = tested on: HCC 2998

Structure (SMILES) | GI50 (786-0) | GI50 (ACHN) | GI50 (CAKI-1) | GI50 (CCRF-CEM) | GI50 (DU-145) | GI50 (HCT-15) [µM] | GI50 (HL-60) | GI50 (KM12) | GI50 (LOX IMVI) | GI50 (NCI-H23) | GI50 (NCI-H460) | GI50 (NCI-H522) | GI50 (OVCAR-5) | GI50 (OVCAR-8) | GI50 (SF-295) | GI50 (SF-539) | GI50 (SK-MEL-2) | GI50 (SK-MEL-5) | GI50 (U-251) | GI50 (HCC 2998)
CC(C)=CCc1c(O)c(CC=C(C)C)c2oc3c(c(=O)c2c1O)C(C=C(C)C)Oc1cc(O)ccc1-3 (stereo not drawn) | 6.98 µM (inactive) | 4.49 µM (inactive) | 5.87 µM (inactive) | 0.804 µM (active) | 10.4 µM (inactive) | 5.05 | 5.85 µM (inactive) | 2.94 µM (inactive) | 5.15 µM (inactive) | 4.67 µM (inactive) | 4.49 µM (inactive) | 3.9 µM (inactive) | 18.5 µM (inactive) | 6.85 µM (inactive) | 5.97 µM (inactive) | 11.7 µM (inactive) | 2.92 µM (inactive) | 8.53 µM (inactive) | 4.78 µM (inactive) | –
CN1[C@@H]2CCCC[C@H]2N(C)P1(=O)C(O)/C=C/c1ccccc1 (stereo partly drawn) | > 100 µM (inactive) | > 100 µM (inactive) | > 100 µM (inactive) | > 100 µM (inactive) | > 100 µM (inactive) | > 100 | > 100 µM (inactive) | > 100 µM (inactive) | > 100 µM (inactive) | > 100 µM (inactive) | > 100 µM (inactive) | > 100 µM (inactive) | > 100 µM (inactive) | > 100 µM (inactive) | > 100 µM (inactive) | – | > 100 µM (inactive) | > 100 µM (inactive) | > 100 µM (inactive) | > 100 µM (inactive)
Fc1ccc2c3c([nH]c2c1)CCNC3 | > 100 µM (inactive) | 65.3 µM (inactive) | – | > 100 µM (inactive) | > 100 µM (inactive) | > 100 | > 100 µM (inactive) | > 100 µM (inactive) | > 100 µM (inactive) | > 100 µM (inactive) | > 100 µM (inactive) | – | > 100 µM (inactive) | > 100 µM (inactive) | 67.8 µM (inactive) | > 100 µM (inactive) | – | > 100 µM (inactive) | > 100 µM (inactive) | 76 µM (inactive)
COC(=O)CN1C(=O)C2(C(=O)OC)OC1(c1ccc([N+](=O)[O-])cc1)C1C(=O)N(c3ccccc3)C(=O)C12 (stereo not drawn) | > 100 µM (inactive) | > 100 µM (inactive) | > 100 µM (inactive) | > 100 µM (inactive) | > 100 µM (inactive) | > 100 | > 100 µM (inactive) | > 100 µM (inactive) | > 100 µM (inactive) | > 100 µM (inactive) | – | > 100 µM (inactive) | > 100 µM (inactive) | > 100 µM (inactive) | > 100 µM (inactive) | > 100 µM (inactive) | > 100 µM (inactive) | > 100 µM (inactive) | > 100 µM (inactive) | –
CCN(CC)CCCNc1ccc([N+](=O)[O-])c2nc3ccccc3c(N)c12 | 0.445 µM (active) | 0.324 µM (active) | 4.32 µM (inactive) | 0.45 µM (active) | 1.05 µM (active) | 0.883 | 0.514 µM (active) | 0.392 µM (active) | 0.482 µM (active) | 0.828 µM (active) | 0.379 µM (active) | – | 0.802 µM (active) | 0.65 µM (active) | 0.581 µM (active) | 0.495 µM (active) | 1.14 µM (inactive) | 0.241 µM (active) | – | –
CC(=O)Oc1ccccc1C(=O)O [ASPIRIN] | > 100 µM (inactive) | > 100 µM (inactive) | > 100 µM (inactive) | > 100 µM (inactive) | > 100 µM (inactive) | > 100 | > 100 µM (inactive) | > 100 µM (inactive) | > 100 µM (inactive) | > 100 µM (inactive) | – | > 100 µM (inactive) | > 100 µM (inactive) | > 100 µM (inactive) | > 100 µM (inactive) | > 100 µM (inactive) | > 100 µM (inactive) | > 100 µM (inactive) | > 100 µM (inactive) | –
CCOC(=O)/C(=C\NC(C)(C)C)c1nc2ccccc2[nH]1 | 27.1 µM (inactive) | 20.4 µM (inactive) | 29.2 µM (inactive) | 17.7 µM (inactive) | 29.9 µM (inactive) | 34.2 | 13.2 µM (inactive) | 19.9 µM (inactive) | 21.9 µM (inactive) | 17.7 µM (inactive) | 17.7 µM (inactive) | 20.2 µM (inactive) | 21.5 µM (inactive) | 26.1 µM (inactive) | 20.2 µM (inactive) | 16.8 µM (inactive) | – | 12.9 µM (inactive) | – | –
COC(=O)C1=C(C)NC2(C)OC(C)(O)C(C(C)=O)C12C(C)=O (stereo not drawn) | > 100 µM (inactive) | 70.6 µM (inactive) | > 100 µM (inactive) | 31.6 µM (inactive) | > 100 µM (inactive) | > 100 | > 100 µM (inactive) | > 100 µM (inactive) | 89.5 µM (inactive) | > 100 µM (inactive) | > 100 µM (inactive) | > 100 µM (inactive) | 31.5 µM (inactive) | > 100 µM (inactive) | 32.1 µM (inactive) | 24.3 µM (inactive) | 21.4 µM (inactive) | > 100 µM (inactive) | 43.7 µM (inactive) | –
C=CCN1CCN([C@H](c2ccc(C(=O)N(CC)CC)cc2)c2cccc(OC)c2)CC1 | > 25 µM (inactive) | > 25 µM (inactive) | > 25 µM (inactive) | – | > 25 µM (inactive) | > 25 | > 25 µM (inactive) | > 25 µM (inactive) | – | > 25 µM (inactive) | – | > 25 µM (inactive) | > 25 µM (inactive) | > 25 µM (inactive) | > 25 µM (inactive) | > 25 µM (inactive) | > 25 µM (inactive) | > 25 µM (inactive) | > 25 µM (inactive) | –
CCc1ccc2c(c1)N(CC(C)CN(C)C)c1ccccc1S2 (stereo not drawn) [ETYMEMAZINE HYDROCHLORIDE] | 4.7 µM (inactive) | 5.21 µM (inactive) | 5.06 µM (inactive) | 2.18 µM (inactive) | 7.91 µM (inactive) | 6.21 | 2.65 µM (inactive) | 3.61 µM (inactive) | 3.54 µM (inactive) | 7.64 µM (inactive) | 3.33 µM (inactive) | 2.87 µM (inactive) | 4.98 µM (inactive) | 7.94 µM (inactive) | 9.64 µM (inactive) | 10.2 µM (inactive) | 5.08 µM (inactive) | 3.78 µM (inactive) | 5.12 µM (inactive) | –
CC(=O)/C(C)=N/NC(=O)c1ccccc1O | > 10 µM (inactive) | > 10 µM (inactive) | > 10 µM (inactive) | 23 µM (inactive) | > 100 µM (inactive) | 97.5 | – | > 10 µM (inactive) | > 10 µM (inactive) | > 10 µM (inactive) | > 10 µM (inactive) | > 100 µM (inactive) | > 10 µM (inactive) | > 10 µM (inactive) | > 10 µM (inactive) | > 10 µM (inactive) | > 10 µM (inactive) | 95.1 µM (inactive) | > 10 µM (inactive) | > 10 µM (inactive)
